In PubChem BioAssay AID330 (DTP/NCI, 2004):
Where “and” joins values, the source holds several entries; their conditions need not be identical. Equal values may be shown once. Inconclusive results and toxic doses are left out. The calls were made as follows: active = survival T/C of 150% or more; inactive = T/C below 125% in these data.

System: P388 leukemia ip, CD2F1 mice, survival T/C
Experiment: NCI In Vivo Anticancer Drug Screen. Data for tumor model P388 Leukemia (intraperitoneal) in CD2F1 (CDF1) mice
Conditions: endpoint: median survival time, higher = longer survival
Summary of the method: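 Mice carrying the transplanted tumor received test compound or vehicle. Survival was recorded in each group, and the value is the treated-group measurement divided by that of the vehicle-treated control group.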

[1] = dose: 60.0 mg/kg/injection, schedule: Q01DX005 (ip), vehicle: saline with Tween-80
[2] = dose: 120.0 mg/kg/injection, schedule: Q01DX005 (ip), vehicle: saline with Tween-80
[3] = dose: 25.0 mg/kg/injection, schedule: Q04DX002 (ip), vehicle: saline with Tween-80
[4] = dose: 50.0 mg/kg/injection, schedule: Q04DX002 (ip), vehicle: saline with Tween-80
[5] = dose: 100.0 mg/kg/injection, schedule: Q04DX002 (ip), vehicle: saline with Tween-80
[6] = dose: 200.0 mg/kg/injection, schedule: Q04DX002 (ip), vehicle: saline with Tween-80
[7] = dose: 400.0 mg/kg/injection, schedule: Q04DX002 (ip), vehicle: saline with Tween-80
[8] = dose: 240.0 mg/kg/injection, schedule: Q01DX005 (ip), vehicle: saline with Tween-80
[9] = dose: 25.0 mg/kg/injection, schedule: Q04DX003 (ip), vehicle: saline with Tween-80
[10] = dose: 50.0 mg/kg/injection, schedule: Q01DX009 (ip), vehicle: saline with Tween-80
[11] = dose: 100.0 mg/kg/injection, schedule: Q01DX009 (ip), vehicle: saline with Tween-80
[12] = dose: 50.0 mg/kg/injection, schedule: Q01DX005 (ip), vehicle: Klucel (hydroxypropylcellulose) (HPC)
[13] = dose: 100.0 mg/kg/injection, schedule: Q01DX005 (ip), vehicle: Klucel (hydroxypropylcellulose) (HPC)
[14] = dose: 200.0 mg/kg/injection, schedule: Q01DX005 (ip), vehicle: Klucel (hydroxypropylcellulose) (HPC)
[15] = dose: 200.0 mg/kg/injection, schedule: Q01DX009 (ip), vehicle: saline with Tween-80
[16] = dose: 100.0 mg/kg/injection, schedule: Q04DX003 (ip), vehicle: saline with Tween-80
[17] = dose: 50.0 mg/kg/injection, schedule: Q01DX005 (ip), vehicle: saline
[18] = dose: 100.0 mg/kg/injection, schedule: Q01DX005 (ip), vehicle: saline
[19] = dose: 200.0 mg/kg/injection, schedule: Q01DX005 (ip), vehicle: saline

Measured: T/C

Cc1cnc(Sc2c([N+](=O)[O-])ncn2C)nc1
inactive: dose: 50.0 mg/kg/injection, schedule: Q01DX009 (ip), vehicle: saline 109 % of control | dose: 100.0 mg/kg/injection, schedule: Q01DX009 (ip), vehicle: saline 104 % of control | dose: 200.0 mg/kg/injection, schedule: Q01DX009 (ip), vehicle: saline 109 % of control

C=CN=NNc1ccccc1OC
inactive: dose: 100.0 mg/kg/injection, schedule: Q04DX003 (ip), vehicle: saline + Tween-80 + alcohol 107 % of control | dose: 200.0 mg/kg/injection, schedule: Q04DX003 (ip), vehicle: saline + Tween-80 + alcohol 105 % of control | dose: 400.0 mg/kg/injection, schedule: Q04DX003 (ip), vehicle: saline + Tween-80 + alcohol 107 % of control

NCCN.NCCN.[Cl-].[O]=[Os+2]=[O]
inactive: [1] 118 % of control | [2] 114 % of control

COc1ccc(CCNC(C)Cc2ccc(OC)c(OC)c2)cc1OC (stereo not given)
inactive: dose: 3.13 mg/kg/injection, schedule: Q01DX009 (ip), vehicle: water 94 % of control | dose: 6.25 mg/kg/injection, schedule: Q01DX009 (ip), vehicle: water 92 % of control | dose: 12.5 mg/kg/injection, schedule: Q01DX009 (ip), vehicle: water 96 % of control | dose: 25.0 mg/kg/injection, schedule: Q01DX009 (ip), vehicle: water 100 % of control | dose: 50.0 mg/kg/injection, schedule: Q01DX009 (ip), vehicle: water 99 % of control

CCCSc1ccc([N+](=O)[O-])cc1
inactive: [3] 103 % of control | [4] 104 % of control | [5] 106 % of control

COC(=O)C1CC(c2ccccc2)N(C(C)(C)C)O1 (stereo not given)
inactive: [5] 97 % of control | [6] 100 % of control | [7] 100 % of control

c1cncc(C(Nc2cccc3cccnc23)Nc2cccc3cccnc23)c1
inactive: [1] 94 % of control | [2] 91 % of control | [8] 90 % of control

CCN(CC)CCCC(C)NC1CCCc2cc3c(cc21)C(=O)c1ccccc1C3=O (stereo not given)
inactive: dose: 6.25 mg/kg/injection, schedule: Q04DX003 (ip), vehicle: saline with Tween-80 98 % of control | dose: 12.5 mg/kg/injection, schedule: Q04DX003 (ip), vehicle: saline with Tween-80 94 % of control | [9] 90 % of control

CCCCCCCCCC[N+]1(CC)CCCCCC1
inactive: dose: 3.12 mg/kg/injection, schedule: Q01DX009 (ip), vehicle: saline 90 % of control | dose: 6.25 mg/kg/injection, schedule: Q01DX009 (ip), vehicle: saline 98 % of control

CC(C)C(NC(=O)C1CSC(C)(C)N1C=O)C(=O)O (stereo not given)
inactive: dose: 50.0 mg/kg/injection, schedule: Q01DX005 (ip), vehicle: saline with Tween-80 102 % of control | dose: 100.0 mg/kg/injection, schedule: Q01DX005 (ip), vehicle: saline with Tween-80 100 % of control | dose: 200.0 mg/kg/injection, schedule: Q01DX005 (ip), vehicle: saline with Tween-80 102 % of control

CC1CN(C(=O)Nc2c(C(C)C)cccc2C(C)C)CC(C)O1 (stereo not given)
inactive: [10] 96 % of control | [11] 90 % of control

O=C(NC(Cc1ccccc1)C(=O)CCC(=O)N1CCCC1C(=O)O)c1ccccc1 (stereo not given)
inactive: [4] 103 % of control | [5] 101 % of control | [6] 101 % of control | [7] 101 % of control

CCCCC1N=CNc2c1ccc1c2[nH]c2ccccc21 (stereo not given)
inactive: dose: 12.5 mg/kg/injection, schedule: Q04DX002 (ip), vehicle: saline with Tween-80 101 % of control | [3] 99 % of control | [4] 111 % of control

O=C(N/N=C/c1ccc(O)cc1)c1ccc(OCc2nc3ccccc3[nH]2)cc1
inactive: dose: 25.0 mg/kg/injection, schedule: Q01DX005 (ip), vehicle: Klucel (hydroxypropylcellulose) (HPC) 102 % of control | [12] 96 % of control | [13] 102 % of control | [14] 96 % of control

Cc1cc(C2(c3cc(C)c(O)c(CN(CC(=O)O)CC(=O)O)c3)OC(=O)c3ccccc32)cc(CN(CC(=O)O)CC(=O)O)c1O
inactive: [10] 100 % of control | [11] 100 % of control | [15] 97 % of control

CCCCCCCCCCCCCCCCC1(C)c2ccccc2N(C)C12C=Cc1cc([N+](=O)[O-])ccc1O2 (stereo not given)
inactive: [16] 103 % of control | dose: 200.0 mg/kg/injection, schedule: Q04DX003 (ip), vehicle: saline with Tween-80 100 % of control | dose: 400.0 mg/kg/injection, schedule: Q04DX003 (ip), vehicle: saline with Tween-80 100 % of control

Cc1cc(N)c(C)c(C)c1O
inactive: dose: 25.0 mg/kg/injection, schedule: Q01DX009 (ip), vehicle: saline with Tween-80 113 % of control | [9] 100 % of control | [10] 118 % of control | dose: 50.0 mg/kg/injection, schedule: Q04DX003 (ip), vehicle: saline with Tween-80 110 % of control | [16] 110 % of control

OCCCCC12CCC(CCCCO)(CC1)CC2
inactive: dose: 100.0 mg/kg/injection, schedule: Q04DX002 (ip), vehicle: Klucel (hydroxypropylcellulose) (HPC) 91 % of control | dose: 400.0 mg/kg/injection, schedule: Q04DX002 (ip), vehicle: Klucel (hydroxypropylcellulose) (HPC) 86 % of control

CC1(C)OC(=O)C(=Cc2ccc(-c3cc(C(F)(F)F)cc(C(F)(F)F)c3)o2)C(=O)O1
inactive: [12] 104 % of control | [13] 100 % of control | [14] 92 % of control

O=C(COc1ccc([N+](=O)[O-])cc1)NN1C(=O)c2ccc([N+](=O)[O-])cc2C1=O
inactive: dose: 60.0 mg/kg/injection, schedule: Q01DX005 (ip), vehicle: Klucel (hydroxypropylcellulose) (HPC) 92 % of control | dose: 120.0 mg/kg/injection, schedule: Q01DX005 (ip), vehicle: Klucel (hydroxypropylcellulose) (HPC) 91 % of control | dose: 240.0 mg/kg/injection, schedule: Q01DX005 (ip), vehicle: Klucel (hydroxypropylcellulose) (HPC) 87 % of control

Clc1cccc(C(Nc2nncs2)Nc2nncs2)c1
inactive: [1] 100 % of control | [2] 100 % of control | [8] 93 % of control

CCCS(=N)(=O)CCC(N)C(=O)O (stereo not given)
inactive: dose: 25.0 mg/kg/injection, schedule: Q01DX005 (ip), vehicle: saline 93 % of control | [17] 98 % of control | [18] 107 % of control | [19] 112 % of control

O=c1ccn2c(n1)OC1C(O)C(CO)OC12 (stereo not given)
inactive: dose: 50.0 mg/kg/injection, schedule: Q04DX003 (ip), vehicle: saline 100 % of control | dose: 100.0 mg/kg/injection, schedule: Q04DX003 (ip), vehicle: saline 103 % of control | dose: 200.0 mg/kg/injection, schedule: Q04DX003 (ip), vehicle: saline 102 % of control | dose: 400.0 mg/kg/injection, schedule: Q04DX003 (ip), vehicle: saline 91 % of control

NC(CSCCCS(=O)(=O)O)C(=O)O (stereo not given)
inactive: [17] 101 % of control | [18] 98 % of control | [19] 100 % of control

CN(C)C1C=C(c2ccccc2)OS(=O)(=O)C1 (stereo not given)
inactive: [10] 99 % of control | [11] 97 % of control | [15] 113 % of control

NC(N)=O.NC(N)=O.NC(N)=O.NC(N)=O.NC(N)=O.NC(N)=O.[Cr]
inactive: dose: 3.13 mg/kg/injection, schedule: Q04DX003 (ip), vehicle: saline 98 % of control | dose: 6.25 mg/kg/injection, schedule: Q04DX003 (ip), vehicle: saline 101 % of control | dose: 12.5 mg/kg/injection, schedule: Q04DX003 (ip), vehicle: saline 101 % of control and 102 % of control | dose: 25.0 mg/kg/injection, schedule: Q04DX003 (ip), vehicle: saline 103 % of control

CCN(CC)CC.COC(=O)NC#N.[CH-]1CCCCC1.[CH-]1CCCCC1.[CH-]1CCCCC1.[Cl-].[Sn+4]
inactive: dose: 3.12 mg/kg/injection, schedule: Q01DX005 (ip), vehicle: saline with Tween-80 104 % of control | dose: 6.25 mg/kg/injection, schedule: Q01DX005 (ip), vehicle: saline with Tween-80 98 % of control
